Laboratory results taken from PubChem BioAssay (NCI).
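GI50 is the concentration that inhibits growth by half. Definition used: TGI = concentration required for complete inhibition of growth.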

Experiments:
Experiment in all cases: NCI anticancer screen, dose series, 384-well format
SK-MEL-2 melanoma = system: SK-MEL-2 melanoma
NCI-H322M lung = system: NCI-H322M lung
MCF7 breast = system: MCF7 breast
SN12C renal = system: SN12C renal
UACC-62 melanoma = system: UACC-62 melanoma
SW-620 colon = system: SW-620 colon
T-47D breast = system: T-47D breast
OVCAR-8 ovarian = system: OVCAR-8 ovarian
A549 NSCLC = system: A549 NSCLC
MDA-MB-231 breast = system: MDA-MB-231 breast
KM12 colon = system: KM12 colon
BT-549 breast = system: BT-549 breast
SK-MEL-28 melanoma = system: SK-MEL-28 melanoma
RXF 393 renal = system: RXF 393 renal
SNB-19 CNS = system: SNB-19 CNS
NCI-H23 lung = system: NCI-H23 lung
HL-60(TB) leukemia = system: HL-60(TB) leukemia
UACC-257 melanoma = system: UACC-257 melanoma
HS 578T breast = system: HS 578T breast
OVCAR-4 ovarian = system: OVCAR-4 ovarian
PC-3 prostate = system: PC-3 prostate
OVCAR-5 ovarian = system: OVCAR-5 ovarian
SK-MEL-5 melanoma = system: SK-MEL-5 melanoma
SF-539 CNS = system: SF-539 CNS
CCRF-CEM leukemia = system: CCRF-CEM leukemia
NCI/ADR-RES ovarian = system: NCI/ADR-RES ovarian
NCI-H522 lung = system: NCI-H522 lung
MDA-MB-435 melanoma = system: MDA-MB-435 melanoma
MDA-MB-468 breast = system: MDA-MB-468 breast
SK-OV-3 ovarian = system: SK-OV-3 ovarian
COLO 205 colon = system: COLO 205 colon
OVCAR-3 ovarian = system: OVCAR-3 ovarian
M14 melanoma = system: M14 melanoma
ACHN renal = system: ACHN renal
IGROV1 ovarian = system: IGROV1 ovarian
A498 renal = system: A498 renal
CAKI-1 renal = system: CAKI-1 renal
SF-268 CNS = system: SF-268 CNS
HCC-2998 colon = system: HCC-2998 colon
MOLT-4 leukemia = system: MOLT-4 leukemia
EKVX NSCLC = system: EKVX NSCLC
SR leukemia = system: SR leukemia
HOP-62 NSCLC = system: HOP-62 NSCLC
SNB-75 CNS = system: SNB-75 CNS
U251 glioblastoma = system: U251 glioblastoma
DU-145 prostate = system: DU-145 prostate
SF-295 CNS = system: SF-295 CNS
MALME-3M melanoma = system: MALME-3M melanoma
RPMI-8226 leukemia = system: RPMI-8226 leukemia
HT29 colon = system: HT29 colon
HOP-92 NSCLC = system: HOP-92 NSCLC
HCT-15 colon = system: HCT-15 colon
NCI-H226 lung = system: NCI-H226 lung
NCI-H460 NSCLC = system: NCI-H460 NSCLC
786-0 renal = system: 786-0 renal
TK-10 renal = system: TK-10 renal

CN(C)CCN1C(=O)c2cccc3cc(N)cc(c23)C1=O
GI50 (SK-MEL-2 melanoma): 4.1 µM | TGI (SK-MEL-2 melanoma): 6.11 µM | GI50 (NCI-H322M lung): 4.51 µM | TGI (NCI-H322M lung): 18.2 µM | GI50 (MCF7 breast): 2.92 µM | TGI (MCF7 breast): 16.3 µM | GI50 (SN12C renal): 2.53 µM | TGI (SN12C renal): 11.4 µM | GI50 (UACC-62 melanoma): 1.85 µM | TGI (UACC-62 melanoma): 3.61 µM | GI50 (SW-620 colon): 3.12 µM | TGI (SW-620 colon): 12.1 µM | GI50 (T-47D breast): 2.73 µM | TGI (T-47D breast): 6.62 µM | GI50 (OVCAR-8 ovarian): 1.8 µM | TGI (OVCAR-8 ovarian): 3.63 µM | GI50 (A549 NSCLC): 1.17 µM | TGI (A549 NSCLC): 3.64 µM | GI50 (MDA-MB-231 breast): 2.03 µM | TGI (MDA-MB-231 breast): 5.55 µM | GI50 (KM12 colon): 2.85 µM | TGI (KM12 colon): 14.8 µM | GI50 (BT-549 breast): 2.87 µM | TGI (BT-549 breast): 7.03 µM | GI50 (SK-MEL-28 melanoma): 4.01 µM | TGI (SK-MEL-28 melanoma): 8.86 µM | GI50 (RXF 393 renal): 2.47 µM | TGI (RXF 393 renal): 6.06 µM | GI50 (SNB-19 CNS): 2.16 µM | TGI (SNB-19 CNS): 6.75 µM | GI50 (NCI-H23 lung): 2.45 µM | TGI (NCI-H23 lung): 5.59 µM | GI50 (HL-60(TB) leukemia): 1.09 µM | TGI (HL-60(TB) leukemia): 2.35 µM | GI50 (UACC-257 melanoma): 2.68 µM | TGI (UACC-257 melanoma): 6.03 µM | GI50 (HS 578T breast): 1.42 µM | TGI (HS 578T breast): 5.1 µM | GI50 (OVCAR-4 ovarian): 2.62 µM | TGI (OVCAR-4 ovarian): 5.94 µM | GI50 (PC-3 prostate): 3.49 µM | TGI (PC-3 prostate): 11.3 µM | GI50 (OVCAR-5 ovarian): 2.46 µM | TGI (OVCAR-5 ovarian): 6.66 µM | GI50 (SK-MEL-5 melanoma): 1.96 µM | TGI (SK-MEL-5 melanoma): 3.53 µM | GI50 (SF-539 CNS): 2.22 µM | TGI (SF-539 CNS): 6.64 µM | GI50 (CCRF-CEM leukemia): 1 µM | TGI (CCRF-CEM leukemia): 2.19 µM | GI50 (NCI/ADR-RES ovarian): 2.8 µM | TGI (NCI/ADR-RES ovarian): 7.79 µM | GI50 (NCI-H522 lung): 1.34 µM | TGI (NCI-H522 lung): 3.03 µM | GI50 (MDA-MB-435 melanoma): 3.44 µM | TGI (MDA-MB-435 melanoma): 12 µM | GI50 (MDA-MB-468 breast): 1.88 µM | TGI (MDA-MB-468 breast): 4.73 µM | GI50 (SK-OV-3 ovarian): 2.12 µM | TGI (SK-OV-3 ovarian): 6.21 µM | GI50 (COLO 205 colon): 1.98 µM | TGI (COLO 205 colon): 5.32 µM | GI50 (OVCAR-3 ovarian): 4.01 µM | TGI (OVCAR-3 ovarian): 14 µM | GI50 (M14 melanoma): 2.72 µM | TGI (M14 melanoma): 7.79 µM | GI50 (ACHN renal): 2.31 µM | TGI (ACHN renal): 4.44 µM | GI50 (IGROV1 ovarian): 3.07 µM | TGI (IGROV1 ovarian): 16.5 µM | GI50 (A498 renal): 1.26 µM | TGI (A498 renal): 4.62 µM | GI50 (CAKI-1 renal): 2.2 µM | TGI (CAKI-1 renal): 6.36 µM | GI50 (SF-268 CNS): 3.06 µM | TGI (SF-268 CNS): 8.24 µM | GI50 (HCC-2998 colon): 2.01 µM | TGI (HCC-2998 colon): 5.47 µM | GI50 (MOLT-4 leukemia): 0.242 µM | TGI (MOLT-4 leukemia): 0.572 µM | GI50 (EKVX NSCLC): 4.87 µM | TGI (EKVX NSCLC): 19.6 µM | GI50 (SR leukemia): 1.38 µM | TGI (SR leukemia): 2.69 µM | GI50 (HOP-62 NSCLC): 1.5 µM | TGI (HOP-62 NSCLC): 3.65 µM | GI50 (SNB-75 CNS): 1.35 µM | TGI (SNB-75 CNS): 4.62 µM | GI50 (U251 glioblastoma): 2.38 µM | TGI (U251 glioblastoma): 5.62 µM | GI50 (DU-145 prostate): 2.28 µM | TGI (DU-145 prostate): 14.2 µM | GI50 (SF-295 CNS): 2.77 µM | TGI (SF-295 CNS): 12.1 µM | GI50 (MALME-3M melanoma): 2.2 µM | TGI (MALME-3M melanoma): 4.92 µM | GI50 (RPMI-8226 leukemia): 1.4 µM | TGI (RPMI-8226 leukemia): 2.82 µM | GI50 (HT29 colon): 2.5 µM | TGI (HT29 colon): 6.43 µM | GI50 (HOP-92 NSCLC): 2.49 µM | TGI (HOP-92 NSCLC): 6.89 µM | GI50 (HCT-15 colon): 2.56 µM | TGI (HCT-15 colon): 8.07 µM | GI50 (NCI-H226 lung): 2.02 µM | TGI (NCI-H226 lung): 4.05 µM | GI50 (NCI-H460 NSCLC): 0.791 µM | TGI (NCI-H460 NSCLC): 2.27 µM | GI50 (786-0 renal): 3.13 µM | TGI (786-0 renal): 13.5 µM | GI50 (TK-10 renal): 2.34 µM | TGI (TK-10 renal): 7.61 µM
